melting point [°C]	SMILES
112	CCn1ncnc1COc1nn2c(-c3ccccc3)nnc(C)c2c1C1CCCC1
124 to 129	Cc1nnc(-c2ccccc2F)n2nc(OCc3ncnn3C)c(-c3ccsc3)c12
109	CCn1ncnc1COc1nn2c(-c3cc(F)ccc3F)nnc(C)c2c1C(C)(C)C
150 to 153	Cc1nnc(-c2ccccc2F)n2nc(OCc3ncnn3C)c(-c3ccoc3)c12
144 to 146	Cc1nnc(-c2ccc(F)cc2F)n2nc(OCc3ncnn3C)c(-c3ccsc3)c12
159	Cc1nnc(-c2ccccc2)n2nc(OCc3ncnn3C)c(C3CCCC3)c12
123	Cc1nnc(-c2ccccc2F)n2nc(OCc3ncnn3C)c(C3CCCC3)c12
171 to 177	Cc1nnc(-c2ccc(F)cc2)n2nc(OCc3ncnn3C)c(-c3ccsc3)c12
105	CCn1ncnc1COc1nn2c(-c3ccccc3F)nnc(C)c2c1C1CCCC1
214 to 217	Cc1nnc(-c2ccccc2F)n2nc(OCc3ncn(C)n3)c(-c3ccsc3)c12
